Like-named read-outs stand apart in the source and are kept apart here.
Assay: Lewis acidity: reaction rate constant of CoTPP and oxygen in the presence of a Lewis acid
Format: physicochemical
Protocol: Acetonitrile (MeCN) containing cobalt tetraphenylporphyrin (CoTPP), saturated O2, and a substance to be measured for the Lewis acidity (which is, for example, a cation of metal or the like and is represented by M^n+ in the following reaction scheme (A)) in the following reaction scheme (A) is measured for a change in an ultraviolet-visible absorption spectrum at room temperature. From the obtained reaction rate constant (kcat), the ΔE value (eV) as an index of the Lewis acidity can be calculated. […] The Lewis acidity of an organic compound can also be estimated from an energy level of the lowest unoccupied molecular orbital (LUMO) calculated by quantum chemical calculation.
Examples of the reaction rate constant of CoTPP and oxygen in the presence of a Lewis acid, which is an index of the Lewis acidity measured (calculated) by the above measurement method, are shown below. In the following Table 1, numerical values represented by “kcat, M^−2s^−1” are CoTPP and oxygen in the presence of a Lewis acid. The 5 numerical value represented by “LUMO, eV” is an energy level of LUMO.

[1] = CoTPP and oxygen in MeCN, room temperature

| Compound | kcat [M^−2s^−1] | kcat [1] [M^−2s^−1] |
| --- | --- | --- |
| CCCC[N+](CCCC)(CCCC)CCCC.F[P-](F)(F)(F)(F)F [Tetrabutylammonium hexafluorophosphate] | >0.1 |  |
| Benzalkonium chloride |  | 0.18 |
| Benzethonium chloride |  | 0.24 |

— patent US20240349718A1, “COMPOSITION” (priority 2021, published 2024)
